Test results published in the supplement of paper PMC10307832.

Key:
Test in all cases: relative viability (nuclei count vs DMSO), 5 days (fraction); higher = more cells survive
SW 900 = test system: SW 900
Method in brief: (§1)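 Values are medians from duplicate plates. Each reflects relative viability, defined as the nuclei count of treated wells over that of vehicle wells. Lung cancer cell lines in 1536-well plates were pin-tool dosed one day after seeding with one drug alone or with a fixed anchor-drug dose plus five library-drug doses (not always all listed) in √10 steps, then fixed, stained and imaged at 4× after 5 days.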

NCI-H2342 = test system: NCI-H2342
Method in brief: as §1

NCI-H1563 = test system: NCI-H1563
Method in brief: as §1

NCI-H522 = test system: NCI-H522
Method in brief: as §1

NCI-H1623 = test system: NCI-H1623
Method in brief: as §1

EBC-1 = test system: EBC-1
Method in brief: as §1

NCI-H1703 = test system: NCI-H1703
Method in brief: as §1

Calu-6 = test system: Calu-6
Method in brief: as §1

IA-LM = test system: IA-LM
Method in brief: as §1

NCI-H1299 = test system: NCI-H1299
Method in brief: as §1

A549 = test system: A549
Method in brief: as §1

## O=C(O)CCCCC(CCSCc1ccccc1)SCc1ccccc1 (centres undefined) [CPI-613] + CCNC(=O)c1noc(-c2cc(C(C)C)c(O)cc2O)c1-c1ccc(CN2CCOCC2)cc1 [Luminespib] (partner 0.01 µM)
SW 900; first compound 5 µM
  relative viability: 0.162
SW 900; first compound 15.81 µM
  relative viability: 0.166
SW 900; first compound 50 µM
  relative viability: 0.209
SW 900; first compound 158.11 µM
  relative viability: 0.17
SW 900; first compound 500 µM
  relative viability: 0.0842
NCI-H2342; first compound 5 µM
  relative viability: 0.798
NCI-H2342; first compound 15.81 µM
  relative viability: 0.738
NCI-H2342; first compound 50 µM
  relative viability: 0.543
NCI-H2342; first compound 158.11 µM
  relative viability: 0.668
NCI-H2342; first compound 500 µM
  relative viability: 0.756
NCI-H1563; first compound 5 µM
  relative viability: 0.491
NCI-H1563; first compound 15.81 µM
  relative viability: 0.501
NCI-H1563; first compound 50 µM
  relative viability: 0.552
NCI-H1563; first compound 158.11 µM
  relative viability: 0.357
NCI-H1563; first compound 500 µM
  relative viability: 0.316
NCI-H522; first compound 5 µM
  relative viability: 1.15
NCI-H522; first compound 15.81 µM
  relative viability: 1.01
NCI-H522; first compound 50 µM
  relative viability: 1.19
NCI-H522; first compound 158.11 µM
  relative viability: 0.974
NCI-H522; first compound 500 µM
  relative viability: 1.16
NCI-H1623; first compound 5 µM
  relative viability: 0.405
NCI-H1623; first compound 15.81 µM
  relative viability: 0.436
NCI-H1623; first compound 50 µM
  relative viability: 0.54
NCI-H1623; first compound 158.11 µM
  relative viability: 0.389
NCI-H1623; first compound 500 µM
  relative viability: 0.447

## O=C(O)CCCCC(CCSCc1ccccc1)SCc1ccccc1 (centres undefined) [CPI-613] + COc1cc2c(Oc3ccc(NC(=O)C4(C(=O)Nc5ccc(F)cc5)CC4)cc3F)ccnc2cc1OCCCN1CCOCC1 [Foretinib] (partner 0.25 µM)
EBC-1; first compound 5 µM
  relative viability: 0.0958
EBC-1; first compound 15.81 µM
  relative viability: 0.0971
EBC-1; first compound 50 µM
  relative viability: 0.0899
EBC-1; first compound 158.11 µM
  relative viability: 0.0957
EBC-1; first compound 500 µM
  relative viability: 0.0975
SW 900; first compound 5 µM
  relative viability: 0.743
SW 900; first compound 15.81 µM
  relative viability: 0.776
SW 900; first compound 50 µM
  relative viability: 0.792
SW 900; first compound 158.11 µM
  relative viability: 0.418
SW 900; first compound 500 µM
  relative viability: 0.0443
NCI-H2342; first compound 5 µM
  relative viability: 1.04
NCI-H2342; first compound 15.81 µM
  relative viability: 0.978
NCI-H2342; first compound 50 µM
  relative viability: 1.04
NCI-H2342; first compound 158.11 µM
  relative viability: 1.12
NCI-H2342; first compound 500 µM
  relative viability: 1.05
NCI-H1703; first compound 5 µM
  relative viability: 0.442
NCI-H1703; first compound 15.81 µM
  relative viability: 0.353
NCI-H1703; first compound 158.11 µM
  relative viability: 0.331
NCI-H1703; first compound 500 µM
  relative viability: 0.33
Calu-6; first compound 5 µM
  relative viability: 0.872
Calu-6; first compound 15.81 µM
  relative viability: 0.848
Calu-6; first compound 50 µM
  relative viability: 0.865
Calu-6; first compound 158.11 µM
  relative viability: 0.769
Calu-6; first compound 500 µM
  relative viability: 0.675
NCI-H1563; first compound 5 µM
  relative viability: 0.957
NCI-H1563; first compound 15.81 µM
  relative viability: 0.896
NCI-H1563; first compound 50 µM
  relative viability: 0.892
NCI-H1563; first compound 158.11 µM
  relative viability: 0.665
NCI-H1563; first compound 500 µM
  relative viability: 0.231
IA-LM; first compound 5 µM
  relative viability: 1.12
IA-LM; first compound 15.81 µM
  relative viability: 1.16
IA-LM; first compound 50 µM
  relative viability: 1.13
IA-LM; first compound 158.11 µM
  relative viability: 0.933
IA-LM; first compound 500 µM
  relative viability: 0.872
NCI-H1299; first compound 5 µM
  relative viability: 1.03
NCI-H1299; first compound 15.81 µM
  relative viability: 1.04
NCI-H1299; first compound 50 µM
  relative viability: 1.1
NCI-H1299; first compound 158.11 µM
  relative viability: 1.08
NCI-H1299; first compound 500 µM
  relative viability: 1.14
NCI-H1623; first compound 5 µM
  relative viability: 0.845
NCI-H1623; first compound 15.81 µM
  relative viability: 0.921
NCI-H1623; first compound 50 µM
  relative viability: 0.972
NCI-H1623; first compound 158.11 µM
  relative viability: 0.59
NCI-H1623; first compound 500 µM
  relative viability: 0.831
A549; first compound 5 µM
  relative viability: 0.942
A549; first compound 15.81 µM
  relative viability: 0.829
A549; first compound 50 µM
  relative viability: 0.848
A549; first compound 158.11 µM
  relative viability: 0.944
A549; first compound 500 µM
  relative viability: 0.641

## O=C(O)CCCCC(CCSCc1ccccc1)SCc1ccccc1 (centres undefined) [CPI-613] + Cc1nc(Nc2ncc(C(=O)Nc3c(C)cccc3Cl)s2)cc(N2CCN(CCO)CC2)n1 [Dasatinib] (partner 0.075 µM)
SW 900; first compound 5 µM
  relative viability: 0.692
SW 900; first compound 15.81 µM
  relative viability: 0.542
SW 900; first compound 50 µM
  relative viability: 0.686
SW 900; first compound 158.11 µM
  relative viability: 0.262
SW 900; first compound 500 µM
  relative viability: 0.121
NCI-H2342; first compound 5 µM
  relative viability: 0.315
NCI-H2342; first compound 15.81 µM
  relative viability: 0.275
NCI-H2342; first compound 50 µM
  relative viability: 0.315
NCI-H2342; first compound 158.11 µM
  relative viability: 0.286
NCI-H2342; first compound 500 µM
  relative viability: 0.294
NCI-H1563; first compound 5 µM
  relative viability: 0.455
NCI-H1563; first compound 15.81 µM
  relative viability: 0.443
NCI-H1563; first compound 50 µM
  relative viability: 0.436
NCI-H1563; first compound 158.11 µM
  relative viability: 0.461
NCI-H1563; first compound 500 µM
  relative viability: 0.456
NCI-H522; first compound 5 µM
  relative viability: 0.818
NCI-H522; first compound 15.81 µM
  relative viability: 1.01
NCI-H522; first compound 50 µM
  relative viability: 0.922
NCI-H522; first compound 158.11 µM
  relative viability: 0.84
NCI-H522; first compound 500 µM
  relative viability: 0.494
NCI-H1623; first compound 5 µM
  relative viability: 0.592
NCI-H1623; first compound 15.81 µM
  relative viability: 0.566
NCI-H1623; first compound 50 µM
  relative viability: 0.549
NCI-H1623; first compound 158.11 µM
  relative viability: 0.39
NCI-H1623; first compound 500 µM
  relative viability: 0.569
